Entries after “also recorded” stand apart in the source; their conditions may differ. Counter-ions that a name gives are not always drawn.
Key:
129Sv6 mice [1] = test: Radiant heat tail flick antinociception; type: in vivo, mouse; conditions: for antinociceptive activity in the tail-flick assay at doses as high as 100 mg/kg: alkaloid 2 po and sc, 9OH sc; for opioid receptor dependence of antinociception (MOR, DOR, KOR KO mice): 129Sv6 (and C57BL/6J) KO mice, KAE 100 mg/kg po in 129Sv6; for effect of naloxone on antinociception: naloxone 1 mg/kg sc 15 min before drug
mDOR = mDOR (Mus musculus, UniProt P32300); test: [35S]GTPγS functional assay in membranes of transfected cells; conditions: antagonism of 100 nM agonist
mKOR [2] = molecular target: T1, mKOR (Mus musculus, UniProt P33534); test: as above; conditions: relative to U50, 488H
CD1 mice = conditions: cited from earlier work
humans = conditions: cited from earlier work
mKOR [3] = molecular target: T1, mKOR; conditions: agonist stimulation, ± SEM; cited from earlier work
[4] = Pharmacokinetic study, plasma and brain levels by LC-MS/MS
mMOR [5] = molecular target: T2, mMOR (Mus musculus, UniProt P42866); conditions: read-out: [35S]GTPγS mMOR EC50; agonist stimulation, ± SEM; cited from earlier work
C57BL/6J mice [6] = conditions: MP 0.76, 1.5, 4 mg/kg sc; Figure 2L reprinted; listed as MP; cited from earlier work
C57BL/6J mice [7] = test: 55 °C warm-water tail-withdrawal; type: in vivo, mouse
MOR KO mice [8] = test: Antagonism of icv KOR/DOR agonist antinociception; type: in vivo, mouse; conditions: MP 30 mg/kg sc
mice = conditions: po; cited from earlier work
rats = conditions: intravenous (iv) route; cited from earlier work
[9] = Pharmacokinetic study, plasma and brain levels by LC-MS/MS; remark: listed apart in the source
Lethality = type: in vivo, mouse; conditions: 129Sv6, mouse, in vivo, po
129Sv6 mice [10] = test: Lethality; type: in vivo, mouse; conditions: from rodent oral LD50
C57BL/6J mice [11] = test: Conditioned place preference and aversion; type: in vivo, mouse; conditions: alkaloid extract 100 mg/kg/d po, mitragynine 30 mg/kg/d po, 7OH 1 mg/kg/d sc
C57BL/6J mice [12] = test: Lethality; type: in vivo, mouse
MOR KO mice [13] = test: Lethality; type: in vivo, mouse
[14] = Stability in pH 7.4 buffer; type: physicochemical
[15] = pH 7.4
C57BL/6J mice [16] = test: Locomotor; type: in vivo, mouse; conditions: KAE 45 mg/kg po, mitragynine 20 mg/kg po, 7OH 1 mg/kg sc, MP […] sc
mMOR [17] = molecular target: T2, mMOR; test: [35S]GTPγS functional assay in membranes of transfected cells; conditions: read-out: [35S]GTPγS mMOR %Emax
CXCR7 = CXCR7 (Homo sapiens, UniProt P25106); test: PRESTO-Tango concentration-response; type: cell-based
[18] = test system: 318 non-olfactory GPCRs (opioid receptors); test: PRESTO-Tango GPCRome β-arrestin2 recruitment screen; type: cell-based, human; conditions: 10 μM
BB3 = molecular target: T3, BB3 (Homo sapiens, UniProt P32247); test: PRESTO-Tango concentration-response; type: cell-based
T3 sequence (P32247 1-399): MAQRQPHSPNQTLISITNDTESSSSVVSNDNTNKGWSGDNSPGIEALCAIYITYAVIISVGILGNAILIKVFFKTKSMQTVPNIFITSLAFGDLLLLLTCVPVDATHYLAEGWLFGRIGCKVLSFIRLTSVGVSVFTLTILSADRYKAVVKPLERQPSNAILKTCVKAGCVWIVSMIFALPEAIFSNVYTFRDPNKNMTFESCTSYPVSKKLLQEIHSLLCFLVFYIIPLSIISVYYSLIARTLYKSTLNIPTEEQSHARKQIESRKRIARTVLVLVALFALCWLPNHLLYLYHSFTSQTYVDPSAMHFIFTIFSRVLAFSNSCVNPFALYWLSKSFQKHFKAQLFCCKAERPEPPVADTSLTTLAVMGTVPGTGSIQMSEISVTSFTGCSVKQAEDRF

CCR3 = molecular target: T4, CCR3 (Homo sapiens, UniProt P51677); test: PRESTO-Tango concentration-response; type: cell-based
T4 sequence (P51677 1-355): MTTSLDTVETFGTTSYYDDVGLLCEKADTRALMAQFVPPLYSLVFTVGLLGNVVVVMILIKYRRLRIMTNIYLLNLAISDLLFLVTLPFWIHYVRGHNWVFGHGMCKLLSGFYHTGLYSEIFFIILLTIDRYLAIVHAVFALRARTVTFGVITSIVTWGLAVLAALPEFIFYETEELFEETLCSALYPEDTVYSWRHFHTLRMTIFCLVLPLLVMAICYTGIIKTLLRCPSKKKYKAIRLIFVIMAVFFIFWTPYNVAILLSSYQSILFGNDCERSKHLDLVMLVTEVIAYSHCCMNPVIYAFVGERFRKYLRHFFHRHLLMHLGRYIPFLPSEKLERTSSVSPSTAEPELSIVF

[19] = C57BL/6J, mitragynine 30 mg/kg po

T1 sequence (P33534 whole entry): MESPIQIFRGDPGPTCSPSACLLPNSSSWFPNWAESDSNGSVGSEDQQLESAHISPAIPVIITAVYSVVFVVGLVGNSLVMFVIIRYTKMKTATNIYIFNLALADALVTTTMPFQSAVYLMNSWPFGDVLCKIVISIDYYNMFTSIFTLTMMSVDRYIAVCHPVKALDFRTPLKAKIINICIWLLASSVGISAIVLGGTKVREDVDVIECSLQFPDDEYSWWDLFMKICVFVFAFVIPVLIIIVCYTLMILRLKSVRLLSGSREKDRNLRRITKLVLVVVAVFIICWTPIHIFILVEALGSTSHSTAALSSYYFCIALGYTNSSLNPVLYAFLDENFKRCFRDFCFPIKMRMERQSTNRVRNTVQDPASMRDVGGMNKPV
T2 sequence (P42866 whole entry): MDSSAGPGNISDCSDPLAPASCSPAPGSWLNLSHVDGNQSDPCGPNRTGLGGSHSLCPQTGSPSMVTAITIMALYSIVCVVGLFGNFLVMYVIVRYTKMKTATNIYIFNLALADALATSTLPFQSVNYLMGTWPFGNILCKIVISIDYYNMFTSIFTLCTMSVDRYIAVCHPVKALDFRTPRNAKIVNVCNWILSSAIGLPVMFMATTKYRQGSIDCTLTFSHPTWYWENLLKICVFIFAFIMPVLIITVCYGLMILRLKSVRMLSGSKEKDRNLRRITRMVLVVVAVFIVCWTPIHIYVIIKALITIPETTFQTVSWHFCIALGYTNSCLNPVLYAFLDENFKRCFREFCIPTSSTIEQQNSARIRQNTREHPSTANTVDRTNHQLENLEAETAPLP
Chain of mDOR (P32300 whole entry): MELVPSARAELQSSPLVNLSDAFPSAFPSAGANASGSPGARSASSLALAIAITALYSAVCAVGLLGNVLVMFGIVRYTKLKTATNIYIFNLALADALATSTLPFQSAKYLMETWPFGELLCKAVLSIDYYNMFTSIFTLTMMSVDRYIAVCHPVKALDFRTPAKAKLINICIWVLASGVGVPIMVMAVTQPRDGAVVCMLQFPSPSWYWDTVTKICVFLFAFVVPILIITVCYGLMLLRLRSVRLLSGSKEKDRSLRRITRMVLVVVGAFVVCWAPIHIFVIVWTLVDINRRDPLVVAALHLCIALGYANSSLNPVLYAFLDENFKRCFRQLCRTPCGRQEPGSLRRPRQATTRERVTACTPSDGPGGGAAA
Chain of CXCR7 (P25106 whole entry): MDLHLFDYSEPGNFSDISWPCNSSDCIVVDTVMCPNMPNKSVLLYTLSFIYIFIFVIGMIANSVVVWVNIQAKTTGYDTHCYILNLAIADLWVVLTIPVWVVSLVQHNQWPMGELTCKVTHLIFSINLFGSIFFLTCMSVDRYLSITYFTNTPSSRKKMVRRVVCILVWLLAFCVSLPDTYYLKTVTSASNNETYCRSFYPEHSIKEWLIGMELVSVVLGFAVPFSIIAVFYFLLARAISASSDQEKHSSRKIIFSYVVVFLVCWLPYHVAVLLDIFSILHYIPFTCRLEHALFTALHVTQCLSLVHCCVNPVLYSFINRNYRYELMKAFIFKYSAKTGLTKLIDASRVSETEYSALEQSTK

C=C[C@H]1CN2CCc3c([nH]c4cccc(OC)c34)[C@@H]2C[C@@H]1/C(=C\OC)C(=O)OC [paynanthine, paynantheine]
antinociceptive activity in the tail-flick assay at doses as high as 100 mg/kg (129Sv6 mice [1]; 129Sv6 mice): inactive

CC[C@@H]1CN2CCc3c([nH]c4cccc(O)c34)[C@@H]2C[C@@H]1/C(=C\OC)C(=O)OC [9-hydroxy corynanthedine, 9-hydroxycorynantheidine]
[35S]GTPγS mDOR IC50 (mDOR): no activity

CC[C@@H]1CN2CCc3c([nH]c4cccc(O[C@@H]5O[C@H](C(=O)O)[C@@H](O)[C@H](O)[C@H]5O)c34)[C@@H]2C[C@@H]1/C(=C\OC)C(=O)OC [9-glucuronoyl mitragynine, (2S,3S,5R,6S)-6-(((2S,3S)-2-((E)-1,3-Dimethoxy-3-oxoprop-1-en-2-yl)-3-ethyl-1,2,3,4,6,7,12,12b-octahydroindolo[2,3-a]quinolizin-8-yl)oxy)-3,4,5-trihydroxytetrahydro-2H-pyran-2-carboxylic Acid]
[35S]GTPγS mDOR IC50 (mDOR): no activity

CC[C@H]1CN2CCc3c([nH]c4cccc(OC)c34)[C@@H]2C[C@@H]1/C(=C\OC)C(=O)OC [speciogynine]
antinociceptive activity in the tail-flick assay at doses as high as 100 mg/kg (129Sv6 mice [1]; 129Sv6 mice): inactive | [35S]GTPγS mKOR %Emax (mKOR [2]): no activity

CN1CC[C@]23c4c5ccc(O)c4O[C@H]2[C@@H](O)C=C[C@H]3[C@H]1C5 [morphine]
antinociceptive ED50 (95% CI), po (129Sv6 mice [1]; 129Sv6 mice, po, at peak effect): 3.32 (2.08–5.32) mg/kg | antinociceptive ED50 (CD1 mice): 5 mg/kg | potency intravenously versus orally (humans): ~ 3 fold

CC[C@@H]1CN2CC[C@]3(Nc4cccc(OC)c4C3=O)[C@@H]2C[C@@H]1/C(=C\OC)C(=O)OC [mitragynine pseudoindoxyl]
[35S]GTPγS mKOR EC50 (mKOR [3]): no activity | opioid receptor dependence of antinociception (MOR, DOR, KOR KO mice) (129Sv6 mice [1]): mediated through MOR, independent of DOR/KOR | more antinociceptive potency than mitragynine (sc) (129Sv6 mice [1]; 129Sv6 mice, sc): > 100 fold | effect of naloxone on antinociception (129Sv6 mice [1]): naloxone-sensitive | level in plasma and brain at 8 h [4, 19]: no quantifiable | concentration at 20 min ([4]; C57BL/6J, mouse, plasma, sc): 0.41 ± 0.12 µM | EC50 (mMOR [5]): 1.66 ± 0.1 nM | inhibition of GI transit (in words) (C57BL/6J mice [6]): showed constipation at all doses | antinociceptive potency over sc morphine (C57BL/6J mice [7]; C57BL/6J, sc): about 10 fold | ED50 (C57BL/6J mice [7]; Mus musculus, sc, read-out: antinociceptive ED50 (95% CI), sc): 0.26 mg/kg | antinociceptive potency relative to morphine (C57BL/6J mice [7]; sc, C57BL/6J and 129Sv6 strains): 2–10 fold | antagonism of icv SNC 80 antinociception (MOR KO mice [8]; SNC 80 100 nmol icv): antagonized | antagonism of icv U50, 488H antinociception (MOR KO mice [8]; U50, 488H 100 nmol icv): antagonized

CC[C@@H]1CN2CCc3c([nH]c4cccc(OC)c34)[C@@H]2C[C@@H]1/C(=C\OC)C(=O)OC [mitragynine]
[35S]GTPγS mKOR EC50 (mKOR [3]): no activity | reported LD50 (mice): 477 mg/kg | self-administration (rats): not self-administered | brain concentration of intact mitragynine ([9]; 129Sv6, po, ED80 dose (10 mg/kg)): 12.22 ± 3.4 µM | brain concentration ([9]; 129Sv6, sc 10 mg/kg): 30.06 ± 8.12 µM | opioid receptor dependence of antinociception (MOR, DOR, KOR KO mice) (129Sv6 mice [1]): mediated by MOR (but not DOR and KOR) | effect of naloxone on antinociception (129Sv6 mice [1]): reversed | level in plasma and brain at 24 h [4, 19]: below detection limits | brain concentration of intact mitragynine ([4]; C57BL/6J, po, ED80 dose (30 mg/kg)): 6.63 ± 0.67 µM | brain concentration ([4]; C57BL/6J, sc 30 mg/kg): 9.74 ± 3.05 µM | brain concentration greater than MOR agonist potency ([4]; po ED80 dose, C57BL/6J and 129Sv6): 30-to-60 fold | LD50 (Lethality): 750 mg/kg | oral LD50 corrected by standard allometric scaling, amount in an adult human (129Sv6 mice [10]): > 2.5 g | conditioned place preference (CPP/CPA) (C57BL/6J mice [11]): displayed CPP; also recorded: produced reward behavior | lethality (C57BL/6J mice [12]; 1 g/kg, po, data not shown): 100% | lethality (in words) (MOR KO mice [13]; 1 g/kg po, C57BL/6J or MOR KO mice): death of all animals | stability in D2O ([14]; 1H NMR at 1, 5, 10, 24 h, room temperature): stable | stability in pH 7.4 buffer ([14]; LC/MS at 1, 5, 10 and 24 h): very stable | increase of half-life in microsomes in the presence of ketoconazole [15]: ~ 5 fold | time to peak antinociceptive effect (C57BL/6J mice [7]; both strains (C57BL/6J, 129Sv6), po and sc): 15 to 20 min | hyperlocomotion compared to morphine (C57BL/6J mice [16]): attenuated

CC[C@@H]1C[N+]2=C(C[C@@H]1/C(=C\OC)C(=O)OC)c1[nH]c3cccc(OC)c3c1CC2 [3-dehydromitragynine, (2S,3S)-2-((E)-1,3-Dimethoxy-3-oxoprop-1-en-2-yl)-3-ethyl-8-methoxy-2,3,4,6,7,12-hexahydro-1H-indolo[2,3-a]quinolizin-5-ium TFA Salt]
Emax (mMOR [17]): 44 ± 1% | antinociception in mice (in words) (129Sv6 mice [1]; administered directly): not antinociceptive | activity at CXCR7 (in words) (CXCR7): Poor (μM) activity | increase in luminescence signal, fold of basal, at opioid receptors [18]: > 3 fold of basal | off-target activity (in words) ([18]; Table 1 and Figure 6B): no other notable off–target activity beyond opioid receptors | lethality (C57BL/6J mice [12]; 50 mg/kg, sc): 100% | lethality in the presence of KOR antagonist (nor-BNI) and DOR antagonist (NTI) (C57BL/6J mice [12]; 3DM 50 mg/kg sc, norBNI 10 mg/kg sc 24 h, NTI 20 mg/kg sc 15 min pretreatment): lethality was still observed | lethality (MOR KO mice [13]; 50 mg/kg, sc): 100% | activity at BB3 (in words) (BB3): Poor (μM) activity | activity at CCR3 (in words) (CCR3): Poor (μM) activity

Reference: article PMC8673317 (Journal of medicinal chemistry, 2021)
